According to ChEMBL document CHEMBL4393707, “Synthesis and evaluation of new quinazolin-4(3H)-one derivatives as potent antibacterial agents against multidrug resistant Staphylococcus aureus and Mycobacterium tuberculosis” (Eur J Med Chem, 2019):
In brackets after ≈: the same amount, converted by molar mass.

What was measured:
[1] = tested on: Staphylococcus aureus; test: Potentiation of gentamycin-induced antibacterial activity against Staphylococcus aureus ATCC 29213 assessed as FIC incubated for 24 hrs by checkerboard titration assay; format: functional
[2] = tested on: Staphylococcus aureus; test: Synergistic antibacterial activity against Staphylococcus aureus ATCC 29213 incubated for 24 hrs in presence of gentamycin by checkerboard titration assay; format: functional; conditions: ATCC 29213, 24 h
[3] = tested on: Staphylococcus aureus; test: Synergistic antibacterial activity against Staphylococcus aureus ATCC 29213 assessed as sum of FIC for test compound in presence of gentamycin and FIC for gentamycin in presence of test compound incubated for 24 hrs by checkerboard titration assay; format: functional
[4] = tested on: Staphylococcus aureus; test: Potentiation of linezolid-induced antibacterial activity against Staphylococcus aureus ATCC 29213 assessed as FIC incubated for 24 hrs by checkerboard titration assay; format: functional
[5] = Cytotoxicity against African green monkey Vero cells assessed as reduction in cell viability after 72 hrs by MTT assay; format: cell-based; conditions: chlorocebus sabaeus
[6] = tested on: Pseudomonas aeruginosa; test: Antibacterial activity against Pseudomonas aeruginosa ATCC 27853 incubated for 16 to 18 hrs by broth microdilution assay; format: functional
[7] = tested on: Staphylococcus aureus; test: Potentiation of linezolid-induced antibacterial activity against Staphylococcus aureus ATCC 29213 assessed as linezolid MIC incubated for 24 hrs by checkerboard titration assay (reference value: 2 ug/ml); format: functional; conditions: ATCC 29213, 24 h
[8] = tested on: Staphylococcus aureus; test: Potentiation of meropenem-induced antibacterial activity against Staphylococcus aureus ATCC 29213 assessed as FIC incubated for 24 hrs by checkerboard titration assay; format: functional
[9] = tested on: Staphylococcus aureus; test: Synergistic antibacterial activity against Staphylococcus aureus ATCC 29213 assessed as sum of FIC for test compound in presence of linezolid and FIC for linezolid in presence of test compound incubated for 24 hrs by checkerboard titration assay; format: functional
[10] = Selectivity index, ratio of CC50 for African green monkey Vero cells to MIC for Staphylococcus aureus ATCC 29213; format: toxicity; conditions: read-out: Selectivity Index
[11] = tested on: Staphylococcus aureus; test: Potentiation of minocycline-induced antibacterial activity against Staphylococcus aureus ATCC 29213 assessed as FIC incubated for 24 hrs by checkerboard titration assay; format: functional
[12] = tested on: Staphylococcus aureus; test: Synergistic antibacterial activity against Staphylococcus aureus ATCC 29213 assessed as FIC incubated for 24 hrs in presence of linezolid by checkerboard titration assay; format: functional
[13] = tested on: Staphylococcus aureus; test: Antibacterial activity against methicillin-resistant Staphylococcus aureus NR100 incubated for 16 to 18 hrs by broth microdilution assay; format: functional
[14] = tested on: Klebsiella pneumoniae; test: Antibacterial activity against Klebsiella pneumoniae ATCC BAA-1705 incubated for 16 to 18 hrs by broth microdilution assay; format: functional
[15] = tested on: Staphylococcus aureus; test: Antibacterial activity against vancomycin-resistant Staphylococcus aureus VRS1 incubated for 16 to 18 hrs by broth microdilution assay; format: functional
[16] = tested on: Staphylococcus aureus; test: Synergistic antibacterial activity against Staphylococcus aureus ATCC 29213 incubated for 24 hrs in presence of levofloxacin by checkerboard titration assay; format: functional; conditions: ATCC 29213, 24 h
[17] = tested on: Escherichia coli; test: Antibacterial activity against Escherichia coli ATCC 25922 incubated for 16 to 18 hrs by broth microdilution assay; format: functional
[18] = tested on: Staphylococcus aureus; test: Synergistic antibacterial activity against Staphylococcus aureus ATCC 29213 incubated for 24 hrs in presence of daptomycin by checkerboard titration assay; format: functional; conditions: ATCC 29213, 24 h
[19] = tested on: Staphylococcus aureus; test: Synergistic antibacterial activity against Staphylococcus aureus ATCC 29213 assessed as FIC incubated for 24 hrs in presence of gentamycin by checkerboard titration assay; format: functional
[20] = tested on: Staphylococcus aureus; test: Synergistic antibacterial activity against Staphylococcus aureus ATCC 29213 assessed as FIC incubated for 24 hrs in presence of levofloxacin by checkerboard titration assay; format: functional
[21] = tested on: Staphylococcus aureus; test: Synergistic antibacterial activity against Staphylococcus aureus ATCC 29213 incubated for 24 hrs in presence of minocycline by checkerboard titration assay; format: functional; conditions: ATCC 29213, 24 h
[22] = tested on: Staphylococcus aureus; test: Synergistic antibacterial activity against Staphylococcus aureus ATCC 29213 assessed as sum of FIC for test compound in presence of vancomycin and FIC for vancomycin in presence of test compound incubated for 24 hrs by checkerboard titration assay; format: functional
[23] = tested on: Staphylococcus aureus; test: Synergistic antibacterial activity against Staphylococcus aureus ATCC 29213 incubated for 24 hrs in presence of vancomycin by checkerboard titration assay; format: functional; conditions: ATCC 29213, 24 h
[24] = tested on: Staphylococcus aureus; test: Potentiation of meropenem-induced antibacterial activity against Staphylococcus aureus ATCC 29213 assessed as meropenem MIC incubated for 24 hrs by checkerboard titration assay (reference value: 0.25 ug/ml); format: functional; conditions: ATCC 29213, 24 h
[25] = tested on: Staphylococcus aureus; test: Synergistic antibacterial activity against Staphylococcus aureus ATCC 29213 assessed as sum of FIC for test compound in presence of rifampicin and FIC for rifampicin in presence of test compound incubated for 24 hrs by checkerboard titration assay; format: functional
[26] = tested on: Staphylococcus aureus; test: Synergistic antibacterial activity against Staphylococcus aureus ATCC 29213 assessed as FIC incubated for 24 hrs in presence of meropenem by checkerboard titration assay; format: functional
[27] = tested on: Staphylococcus aureus; test: Synergistic antibacterial activity against Staphylococcus aureus ATCC 29213 incubated for 24 hrs in presence of ceftazidime by checkerboard titration assay; format: functional; conditions: ATCC 29213, 24 h
[28] = tested on: Mycobacterium tuberculosis; test: Antitubercular activity against Mycobacterium tuberculosis H37Rv after 7 days by resazurin dye based assay; format: functional; conditions: 168 h
[29] = tested on: Acinetobacter baumannii; test: Antibacterial activity against Acinetobacter baumannii BAA1605 incubated for 16 to 18 hrs by broth microdilution assay; format: functional
[30] = tested on: Staphylococcus aureus; test: Synergistic antibacterial activity against Staphylococcus aureus ATCC 29213 assessed as FIC incubated for 24 hrs in presence of ceftazidime by checkerboard titration assay; format: functional
[31] = tested on: Staphylococcus aureus; test: Antibacterial activity against methicillin-resistant Staphylococcus aureus NR10186 incubated for 16 to 18 hrs by broth microdilution assay; format: functional
[32] = tested on: Staphylococcus aureus; test: Potentiation of rifampicin-induced antibacterial activity against Staphylococcus aureus ATCC 29213 assessed as rifampicin MIC incubated for 24 hrs by checkerboard titration assay (reference value: […] ug/ml); format: functional; conditions: ATCC 29213, 24 h
[33] = tested on: Staphylococcus aureus; test: Antibacterial activity against methicillin-resistant Staphylococcus aureus NR10198 incubated for 16 to 18 hrs by broth microdilution assay; format: functional
[34] = tested on: Staphylococcus aureus; test: Synergistic antibacterial activity against Staphylococcus aureus ATCC 29213 assessed as sum of FIC for test compound in presence of minocycline and FIC for minocycline in presence of test compound incubated for 24 hrs by checkerboard titration assay; format: functional
[35] = tested on: Staphylococcus aureus; test: Antibacterial activity against vancomycin-resistant Staphylococcus aureus VRS4 incubated for 16 to 18 hrs by broth microdilution assay; format: functional
[36] = tested on: Staphylococcus aureus; test: Synergistic antibacterial activity against Staphylococcus aureus ATCC 29213 assessed as sum of FIC for test compound in presence of daptomycin and FIC for daptomycin in presence of test compound incubated for 24 hrs by checkerboard titration assay; format: functional
[37] = tested on: Staphylococcus aureus; test: Antibacterial activity against methicillin-resistant Staphylococcus aureus NR119 incubated for 16 to 18 hrs by broth microdilution assay; format: functional
[38] = tested on: Staphylococcus aureus; test: Synergistic antibacterial activity against Staphylococcus aureus ATCC 29213 assessed as sum of FIC for test compound in presence of ceftazidime and FIC for ceftazidime in presence of test compound incubated for 24 hrs by checkerboard titration assay; format: functional
[39] = tested on: Staphylococcus aureus; test: Antibacterial activity against methicillin-resistant Staphylococcus aureus NR10191 incubated for 16 to 18 hrs by broth microdilution assay; format: functional
[40] = tested on: Staphylococcus aureus; test: Potentiation of rifampicin-induced antibacterial activity against Staphylococcus aureus ATCC 29213 assessed as FIC incubated for 24 hrs by checkerboard titration assay; format: functional

Q: With `N#Cc1ccc(/C=C/c2nc3ccccc3c(=O)n2-c2ccc(C(=O)O)c(O)c2)cc1` as the compound, how does the FIC [1] read?
A: 0.007

Q: And the MIC [2]?
A: 1.9 ng/mL

Q: And the FIC [3]?
A: 0.04

Q: And the FIC [4]?
A: 0.003

Q: And the CC50 at 72 h [5]?
A: > 5000 ng/mL

Q: And the MIC [6]?
A: > 64000 ng/mL

Q: What about the MIC [7] of the same compound?
A: 7.5 ng/mL

Q: And the FIC [8]?
A: 0.003

Q: What about the FIC [9] of the same compound?
A: 0.036

Q: And the selectivity ratio [10]?
A: > 167

Q: And the FIC [11]?
A: 0.007

Q: And the FIC [12]?
A: 0.032

Q: What about the MIC [13] of the same compound?
A: 125 to 250 ng/mL (≈ 0.305 to 0.611 µM)

Q: And the MIC [14]?
A: > 64000 ng/mL

Q: And the MIC [15]?
A: 125 to 250 ng/mL (≈ 0.305 to 0.611 µM)

Q: And the MIC [16]?
A: 1.9 ng/mL

Q: What about the MIC [17] of the same compound?
A: > 64000 ng/mL

Q: And the MIC [18]?
A: 1.9 ng/mL

Q: What about the FIC [19] of the same compound?
A: 0.032

Q: What about the FIC [20] of the same compound?
A: 0.032

Q: And the MIC [21]?
A: 1.9 ng/mL

Q: And the FIC [22]?
A: 0.036

Q: And the MIC [23]?
A: 1.9 ng/mL

Q: And the MIC [24]?
A: 0.9 ng/mL

Q: And the FIC [25]?
A: 0.034

Q: What about the FIC [26] of the same compound?
A: 0.032

Q: What about the MIC [27] of the same compound?
A: 1.9 ng/mL

Q: What about the MIC [28] of the same compound?
A: 64000 ng/mL (≈ 156 µM)

Q: And the MIC [29]?
A: > 64000 ng/mL

Q: What about the FIC [30] of the same compound?
A: 0.032

Q: And the MIC [31]?
A: < 125 ng/mL

Q: And the MIC [32]?
A: 0.03 ng/mL

Q: What about the MIC [33] of the same compound?
A: < 125 ng/mL

Q: What about the FIC [34] of the same compound?
A: 0.039

Q: And the MIC [35]?
A: 125 ng/mL (≈ 0.305 µM)

Q: And the FIC [36]?
A: 0.036

Q: What about the MIC [37] of the same compound?
A: 125 to 250 ng/mL (≈ 0.305 to 0.611 µM)

Q: What about the FIC [38] of the same compound?
A: 0.034

Q: And the MIC [39]?
A: < 125 ng/mL

Q: What about the FIC [40] of the same compound?
A: 0.002

Q: Which results are given for `N#Cc1ccc(/C=C/c2nc3cccc(F)c3c(=O)n2-c2cccc(O)c2)cc1`?
A: FIC [1]: 0.0078; MIC [2]: 7.8 ng/mL; FIC [3]: 0.0703; FIC [4]: 0.0037; CC50 at 72 h [5]: 5000 to 100000 ng/mL (≈ 13 to 261 µM); MIC [6]: > 64000 ng/mL; MIC [7]: 7.5 ng/mL; FIC [8]: 0.0018; FIC [9]: 0.0662; selectivity ratio [10]: > 83.4; FIC [11]: 0.0072; FIC [12]: 0.0625; MIC [13]: 500 ng/mL (≈ 1.3 µM); MIC [14]: > 64000 ng/mL; MIC [15]: 250 ng/mL (≈ 0.652 µM); MIC [16]: 7.8 ng/mL; MIC [17]: > 64000 ng/mL; MIC [18]: 7.8 ng/mL; FIC [19]: 0.0625; FIC [20]: 0.0625; MIC [21]: 7.8 ng/mL; FIC [22]: 0.0664; MIC [23]: 7.8 ng/mL; MIC [24]: 0.9 ng/mL; FIC [25]: 0.0645; FIC [26]: 0.0625; MIC [27]: 7.8 ng/mL; MIC [28]: 8000 ng/mL (≈ 20.9 µM); MIC [29]: > 64000 ng/mL; FIC [30]: 0.0625; MIC [31]: < 125 ng/mL; MIC [32]: 0.03 ng/mL; MIC [33]: < 125 ng/mL; FIC [34]: 0.0697; MIC [35]: 125 ng/mL (≈ 0.326 µM); FIC [36]: 0.0644; MIC [37]: < 125 ng/mL; FIC [38]: 0.0664; MIC [39]: < 125 ng/mL; FIC [40]: 0.002
